pEC50, pIC50, pKd: −log10 of the molar value. Activity calls are given as the source filed them. The rule behind the calls is not given here.
Key:
[1] = biological target: T1, Serine/threonine-protein kinase B-raf (Homo sapiens, UniProt P15056); assay: Binding affinity to recombinant human full-length wild type B-Raf (unknown origin) assessed as DSSDDWEIPDGQITVGQR accessible protease cleavage peptide level by LC-MS/MS analysis relative to control; also: test concentration or dose not given here
Target sequence in this assay (P15056 whole entry): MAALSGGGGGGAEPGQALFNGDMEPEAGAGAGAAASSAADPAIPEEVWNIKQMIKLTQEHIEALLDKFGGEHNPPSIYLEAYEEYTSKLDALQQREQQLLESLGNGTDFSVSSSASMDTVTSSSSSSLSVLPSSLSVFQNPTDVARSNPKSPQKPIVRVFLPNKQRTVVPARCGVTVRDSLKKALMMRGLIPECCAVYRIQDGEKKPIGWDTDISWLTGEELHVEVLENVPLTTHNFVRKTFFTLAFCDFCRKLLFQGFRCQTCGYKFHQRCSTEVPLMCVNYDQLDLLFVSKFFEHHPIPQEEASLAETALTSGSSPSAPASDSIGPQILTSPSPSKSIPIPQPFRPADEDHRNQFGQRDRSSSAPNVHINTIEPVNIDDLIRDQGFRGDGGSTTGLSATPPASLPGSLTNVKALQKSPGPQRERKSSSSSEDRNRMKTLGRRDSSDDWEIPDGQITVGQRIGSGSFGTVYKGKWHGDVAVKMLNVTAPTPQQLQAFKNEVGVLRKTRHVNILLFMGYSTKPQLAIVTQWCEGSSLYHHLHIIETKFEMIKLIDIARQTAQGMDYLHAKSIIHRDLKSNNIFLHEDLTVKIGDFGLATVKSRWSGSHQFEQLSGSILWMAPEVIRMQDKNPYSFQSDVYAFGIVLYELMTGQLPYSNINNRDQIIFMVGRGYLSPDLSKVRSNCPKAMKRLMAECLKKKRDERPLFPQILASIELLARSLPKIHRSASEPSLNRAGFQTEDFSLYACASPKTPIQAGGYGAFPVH

[2] = biological target: T1, Serine/threonine-protein kinase B-raf; assay: Binding affinity to recombinant human full-length wild type B-Raf (unknown origin) assessed as 7VVPAR accessible protease cleavage peptide level by LC-MS/MS analysis relative to control; also: test concentration or dose not given here
Target sequence in this assay (P15056 whole entry): as above

[3] = biological target: T1, Serine/threonine-protein kinase B-raf; assay: Binding affinity to recombinant human full-length wild type B-Raf (unknown origin) assessed as SASEPSLNR accessible protease cleavage peptide level by LC-MS/MS analysis relative to control
Target sequence in this assay (P15056 whole entry): as above

[4] = biological target: T2, Serine/threonine-protein kinase B-raf (Homo sapiens, UniProt P15056, V600E); assay: Inhibition of B-Raf V600E mutant in human A375 cells assessed as phosphorylation of ERK; assay type: cell-based, A-375
[5] = biological target: T1, Serine/threonine-protein kinase B-raf; assay: Binding affinity to recombinant human full-length wild type B-Raf (unknown origin) assessed as IGSGSFGTVYK accessible protease cleavage peptide level by LC-MS/MS analysis relative to control
Target sequence in this assay (P15056 whole entry): as above

[6] = biological target: T1, Serine/threonine-protein kinase B-raf; assay: Inhibition of phosphorylation of ERK level in human SW620 cells expressing wild type B-Raf at 3 microM after 48 hrs by immunoblotting analysis; assay type: cell-based; settings: SW-620
Target sequence in this assay (P15056 whole entry): as above

[7] = biological target: T1, Serine/threonine-protein kinase B-raf; assay: Binding affinity to recombinant human full-length wild type B-Raf (unknown origin) assessed as LIDIAR accessible protease cleavage peptide level by LC-MS/MS analysis relative to control; also: test concentration or dose not given here
Target sequence in this assay (P15056 whole entry): as above

[8] = biological target: T1, Serine/threonine-protein kinase B-raf; assay: Binding affinity to recombinant human full-length wild type B-Raf (unknown origin) assessed as SIIHRDLK accessible protease cleavage peptide level by LC-MS/MS analysis relative to control
[9] = biological target: T1, Serine/threonine-protein kinase B-raf; assay: Binding affinity to recombinant human full-length wild type B-Raf (unknown origin) assessed as DSLKK accessible protease cleavage peptide level by LC-MS/MS analysis relative to control
[10] = biological target: T1, Serine/threonine-protein kinase B-raf; assay: Binding affinity to recombinant human full-length wild type B-Raf (unknown origin) assessed as WHGDVAVK accessible protease cleavage peptide level by LC-MS/MS analysis relative to control
[11] = biological target: T1, Serine/threonine-protein kinase B-raf; assay: Binding affinity to recombinant human full-length wild type B-Raf (unknown origin) assessed as GDGGSTTGLSATPPASLPGSLTNVK accessible protease cleavage peptide level by LC-MS/MS analysis relative to control
[12] = biological target: T1, Serine/threonine-protein kinase B-raf; assay: Binding affinity to recombinant human full-length wild type B-Raf (unknown origin) assessed as GYLSPDLSK accessible protease cleavage peptide level by LC-MS/MS analysis relative to control
[13] = biological target: T1, Serine/threonine-protein kinase B-raf; assay: Binding affinity to recombinant human full-length wild type B-Raf (unknown origin) assessed as DQIIFMVGR accessible protease cleavage peptide level by LC-MS/MS analysis relative to control
[14] = biological target: T1, Serine/threonine-protein kinase B-raf; assay: Binding affinity to recombinant human full-length wild type B-Raf (unknown origin) assessed as IGDFGLATVK accessible protease cleavage peptide level by LC-MS/MS analysis relative to control
[15] = biological target: T1, Serine/threonine-protein kinase B-raf; assay: Inhibition of phosphorylation of MEK level in human SW620 cells expressing wild type B-Raf at 3 microM after 48 hrs by immunoblotting analysis; assay type: cell-based; settings: SW-620
[16] = biological target: T1, Serine/threonine-protein kinase B-raf; assay: Binding affinity to recombinant human full-length wild type B-Raf (unknown origin) assessed as SPQKPIVR accessible protease cleavage peptide level by LC-MS/MS analysis relative to control
[17] = biological target: T1, Serine/threonine-protein kinase B-raf; assay: Binding affinity to recombinant human full-length wild type B-Raf (unknown origin) assessed as SIPIPQPFRPADEDHR accessible protease cleavage peptide level by LC-MS/MS analysis relative to control; also: test concentration or dose not given here
SW-620 = assay: Inhibition of cell proliferation in human SW620 cells expressing wild type B-Raf after 96 hrs by MTT assay; assay type: functional, cell-based
[18] = biological target: T2, Serine/threonine-protein kinase B-raf; assay: Binding affinity to B-Raf V600E mutant (unknown origin)
[19] = biological target: T1, Serine/threonine-protein kinase B-raf; assay: Binding affinity to recombinant human full-length wild type B-Raf (unknown origin) assessed as NEVGVLR accessible protease cleavage peptide level by LC-MS/MS analysis relative to control
[20] = biological target: T1, Serine/threonine-protein kinase B-raf; assay: Binding affinity to recombinant human full-length wild type B-Raf (unknown origin) assessed as SNNIFLHEDLTVK accessible protease cleavage peptide level by LC-MS/MS analysis relative to control; also: test concentration or dose not given here
[21] = biological target: T1, Serine/threonine-protein kinase B-raf; assay: Activation of tumorigenic wild type B-Raf in human IPC-298 cells with Ras mutation assessed as phosphorylation of ERK; assay type: cell-based
Target sequence in this assay (P15056 2-766 limits assumed, change not shown): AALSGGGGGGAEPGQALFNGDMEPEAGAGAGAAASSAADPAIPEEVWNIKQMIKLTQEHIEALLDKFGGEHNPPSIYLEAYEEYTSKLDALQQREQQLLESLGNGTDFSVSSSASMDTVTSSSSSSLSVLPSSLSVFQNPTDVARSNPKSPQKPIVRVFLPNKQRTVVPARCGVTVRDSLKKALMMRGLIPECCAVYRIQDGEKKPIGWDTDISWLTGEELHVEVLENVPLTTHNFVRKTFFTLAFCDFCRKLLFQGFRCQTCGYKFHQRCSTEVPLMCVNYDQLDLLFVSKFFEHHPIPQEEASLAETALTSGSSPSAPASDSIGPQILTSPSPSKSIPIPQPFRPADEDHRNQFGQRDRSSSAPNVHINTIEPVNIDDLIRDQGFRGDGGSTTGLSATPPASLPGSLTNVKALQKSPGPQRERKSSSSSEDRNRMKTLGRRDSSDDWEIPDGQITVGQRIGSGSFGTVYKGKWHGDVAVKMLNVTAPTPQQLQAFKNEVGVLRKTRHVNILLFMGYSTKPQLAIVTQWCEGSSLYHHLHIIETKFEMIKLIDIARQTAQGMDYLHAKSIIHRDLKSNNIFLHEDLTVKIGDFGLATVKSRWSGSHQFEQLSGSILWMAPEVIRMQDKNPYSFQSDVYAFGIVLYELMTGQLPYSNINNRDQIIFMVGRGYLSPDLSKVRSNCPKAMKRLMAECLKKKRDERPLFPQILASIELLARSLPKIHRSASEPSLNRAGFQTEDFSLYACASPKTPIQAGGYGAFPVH

[22] = biological target: T1, Serine/threonine-protein kinase B-raf; assay: Binding affinity to recombinant human full-length wild type B-Raf (unknown origin) assessed as QTAQGMDYLHAK accessible protease cleavage peptide level by LC-MS/MS analysis relative to control
[23] = biological target: T2, Serine/threonine-protein kinase B-raf; assay: Inhibition of B-Raf V600E mutant (unknown origin) assessed as inhibition of phosphorylation of peptide substrate
A-375 = assay: Inhibition of cell proliferation in human A375 cells expressing B-Raf V600E mutant after 96 hrs by MTT assay; assay type: functional, cell-based
[24] = biological target: T1, Serine/threonine-protein kinase B-raf; assay: Binding affinity to wild type B-Raf (unknown origin)
[25] = biological target: T1, Serine/threonine-protein kinase B-raf; assay: Binding affinity to recombinant human full-length wild type B-Raf (unknown origin) assessed as TPIQAGGYGAFPVH accessible protease cleavage peptide level by LC-MS/MS analysis relative to control; also: test concentration or dose not given here
[26] = biological target: T1, Serine/threonine-protein kinase B-raf; assay: Binding affinity to recombinant human full-length wild type B-Raf (unknown origin) assessed as VFLPNK accessible protease cleavage peptide level by LC-MS/MS analysis relative to control

T2 sequence (P15056 2-766 V600E limits assumed): as the sequence (P15056 2-766 limits assumed, change not shown) above, with V599E counted along it

Row | SMILES | Ratio [1] | Ratio [2] | Ratio [3] | pIC50 [4] | Ratio [5] | Ratio [7] | Ratio [8] | Ratio [9] | Ratio [10] | Ratio [11] | Ratio [12] | Ratio [13] | Ratio [14] | Ratio [16] | Ratio [17] | Ratio [19] | Ratio [20] | Ratio [22] | Ratio [25] | Ratio [26] | further results
1 | CCN(C)S(=O)(=O)Nc1ccc(F)c(C(=O)c2c[nH]c3ncc(Cl)cc23)c1F | 0.56 | 1.26 | 1.8 | > 6.00 | 0.62 | 0.5 | 0.47 | 1.71 | 0.5 | 1.55 | 0.91 | 0.83 | 0.53 | 1.11 | 1.45 | 0.37 | 0.21 | 0.9 | 1.42 | 1.01 | inhibition [6]: Active; inhibition [15]: Active; inhibition (SW-620): inactive; pKd [18]: 6.26; pEC50 [21]: < 5.00; pIC50 [23]: > 7.00; inhibition (A-375): Active; pKd [24]: 6.40
2 | Nc1ncnc2c1ncn2[C@@H]1O[C@H](COP(=O)(O)OP(=O)(O)NP(=O)(O)O)[C@@H](O)[C@H]1O | 0.71 | 0.89 | 0.95 | – | 0.83 | 0.55 | 0.37 | 0.76 | 0.67 | 0.98 | 0.82 | 0.62 | 0.79 | 0.83 | 1 | 0.46 | 1.03 | 0.72 | 1.14 | 0.91 | –
3 | CCN(C)S(=O)(=O)Nc1ccc(F)c(C(=O)c2c[nH]c3ncc(-c4ccc(Cl)cc4)cc23)c1F | 0.37 | 0.96 | 1.53 | > 6.00 | 0.42 | 0.23 | 0.3 | 0.93 | 0.36 | 1.16 | 0.41 | 0.48 | 0.3 | 0.94 | 1.27 | 0.12 | 0.11 | 0.36 | 1.22 | 0.73 | inhibition [6]: Active; inhibition [15]: Active; inhibition (SW-620): inactive; pKd [18]: 5.85; pEC50 [21]: < 5.00; pIC50 [23]: > 7.00; inhibition (A-375): Active; pKd [24]: 6.16
4 | Nc1ncnc2c1ncn2[C@@H]1O[C@H](COP(=O)(O)OP(=O)(O)O)[C@@H](O)[C@H]1O | 0.83 | 1.21 | 1.04 | – | 1.18 | 0.86 | 0.32 | 1.34 | 0.99 | 1.28 | 1.27 | 1.36 | 1.3 | 1.14 | 1.34 | 1.13 | 1.9 | 1.22 | 1.42 | 1.24 | –
5 | Nc1ncnc2c1ncn2[C@@H]1O[C@H](COP(=O)(O)OP(=O)(O)OP(=O)(O)O)[C@@H](O)[C@H]1O | 0.62 | 0.97 | 0.94 | – | 0.62 | 0.54 | 1.16 | 0.76 | 0.75 | 0.68 | 0.76 | 0.57 | 0.72 | 0.64 | 0.75 | 0.34 | 0.77 | 0.81 | 0.95 | 0.78 | –

Source: ChEMBL document CHEMBL3414549, “Structural investigation of B-Raf paradox breaker and inducer inhibitors” (J Med Chem, 2015)
